The results in this text go back to patent US10493064B2, “IBS microbiota and uses thereof” (priority 2014, dated 2019).

The test system of one data set is Staphylococcus isolates. Briefly: Broth microdilution susceptibility (MIC) testing of Staphylococcus isolates cultured from skin swabs. Format: cell-based. The following applies: for resistance of S. aureus isolates: S. aureus isolates from skin swabs, OL or DB phases; for changes in MIC90 values: return to baseline by end of study; for MIC: read-out: maximum MIC concentration observed.

The subject of data set [1] is Staphylococcus isolates cultured from stool. Briefly: Susceptibility (MIC) testing of stool culture isolates: Staphylococcus. The data set is classed as cell-based. Conditions: end of Treatment 2 (OL) and end of Treatment 3 (DBR); returned to baseline in follow-up.
The test system of another data set is Bacteroides. As to the kind of experiment: Susceptibility (MIC) testing of stool culture isolates: Bacteroides. Format: cell-based.
The next data set has as its system C. difficile. Briefly: Susceptibility testing of stool culture isolates: C. difficile. Format: cell-based, Clostridium difficile.
A short description of data set [2]: Phase 3 repeat treatment study in IBS patients, infection rates. The data set is classed as in vivo, human. Conditions: following single or repeat treatment courses in IBS patients. As for the experimental part: Subjects entered a Screening/Treatment 1 Phase which included a 10 (±3) day treatment, during which the subjects received single-blind placebo TID and completed a daily symptom diary. Following the Screening/Treatment 1 Phase, eligible subjects entered the Treatment 2 Phase and received open-label rifaximin 550 mg TID for 2 weeks with a 4 week treatment-free follow-up. At the end of the Treatment 2 Phase, subjects who achieved treatment success in both IBS-related abdominal pain and stool consistency during at least 2 weeks of the 4 week follow-up period were classified as responders and entered a treatment-free Maintenance Phase 1. Non-responders in the Treatment 2 Phase were withdrawn from the study to provide an enriched population of subjects who respond to treatment with rifaximin.
The treatment-free Maintenance Phase 1 varied in time (up to 18 weeks in total) and depended upon the time of symptom recurrence. […] Subjects with recurrence entered Treatment 3 Phase, also referred to as the Double-Blind (DB) Repeat Treatment Phase. In this phase, subjects were randomized 1:1 to receive either rifaximin 550 mg TID or placebo TID for 2 weeks with a 4-week treatment-free follow-up. All subjects from the Treatment 3 Phase then entered a 6-week maintenance phase (Maintenance Phase 2). […]

In a further data set the test system is S. aureus. As to the kind of experiment: Skin swab culture for S. aureus in IBS-D subjects. The data set is classed as in vivo, human. Conditions: OL or DB phases. How it is done:
For the skin swab study, skin swab collection was performed for a subset of subjects (approximately 10% of the study population) at each of the following visits: Visits 3 and 4 (baseline and after two weeks of open-label rifaximin 550 mg TID [Treatment 2], respectively), Visits 6 and 7 (prior to and immediately after two weeks of double-blind retreatment [Treatment 3] with rifaximin 550 mg TID or placebo), and Visit 11 (End of Study). For each subject in this study, skin swabs were collected from the peri-rectum, nares, palms of hands, and forearms, and swabs were shipped immediately to the microbiology laboratory at ambient temperature in media-containing tubes. Skin swab cultures were conducted to isolate all Staphylococcus species.
Upon receipt at the microbiology laboratory, each skin swab was plated onto tryptic soy agar containing 5% sheep's blood and Columbia-colistin nalidixic acid agar with 5% sheep's blood to select for Gram-positive colonies. […] The inoculated plates were incubated at 35° C. in a 5-7% CO2 incubator, with plates examined at 24 and 48 h for bacterial growth.

In another data set the test system is stool microbiota. As to the kind of experiment: 16S rRNA gene sequencing of stool microbiota in IBS-D subjects (richness, diversity, evenness, family abundance). The data set is classed as in vivo, human. Conditions: for Shannon diversity: DB rifaximin group. As for the experimental part:
Stool aliquots from the selected subjects were shipped frozen for genomic sequencing. The samples were thawed at the time of testing. DNA was extracted from stool. Next-generation sequencing technology (Illumina HiSeq2500) was used to sequence the V4 region of the 16S ribosomal RNA. In order to do this, a 286 base pair (bp) region was amplified […] first using Illumina's adapter information, and then a second round of demultiplexing was performed. Approximately 4.6 billion total ([…] paired ends) sequences were generated from the selected stool samples. […] There were 172 separate families identified from subjects randomly selected. […] This list also included families of bacteria that contained known pathogens. The Shannon Diversity Index was used to determine the diversity (which takes into account not only the number of bacterial families present, but also the relative abundance of those families) of the stool microbiota at each visit.

[3] abbreviates: skin swab, OL Week 2, following rifaximin treatment.
The mark [4] stands for this setting: skin swab, OL follow-up Week 7 to Week 10.
Where [5] appears, read: skin swab, OL follow-up Week 11 to Week 14.

What is called MIC90 is the lowest concentration that inhibits either 90% of growth or 90% of the strains tested, depending on the study. High values mean weaker potency, low ones greater potency. The MIC50 is the lowest concentration that inhibits either 50% of growth or 50% of the strains tested, depending on the study.

In brackets after ≈: the same amount, converted by molar mass. Read-outs that look alike come from different tables or passages of the source. Some results are limits rather than exact numbers.

For `O=C(O)c1cn(C2CC2)c2cc(N3CCNCC3)c(F)cc2c1=O` [ciprofloxacin], in the data set with Staphylococcus isolates (some skin swab isolates, did not substantially change with rifaximin treatment or time), the “resistance of Staphylococcus isolates” value is recorded as “low levels of resistance”.
Consider `CO[C@H]1/C=C/O[C@@]2(C)Oc3c(C)c(O)c4c(O)c(c(/C=N/N5CCN(C)CC5)c(O)c4c3C2=O)NC(=O)/C(C)=C\C=C\[C@H](C)[C@H](O)[C@@H](C)[C@@H](O)[C@@H](C)[C@H](OC(C)=O)[C@@H]1C` [rifampin], for which the “change in MIC values” in data set [1] was “Transient increases”. The “changes in MIC50 values” in the data set on Staphylococcus isolates is on record as “no changes”. Further, the resistant isolates in the data set with Staphylococcus isolates (DB placebo treated subjects, Day 1, peri-rectum) is 1 isolates; in the data set with Staphylococcus isolates (DB placebo treated subjects, Week 2, peri-rectum), 2 isolates; in the data set on Staphylococcus isolates (DB placebo treated subjects, treatment period, all from peri-rectum), 3 isolates; with Staphylococcus isolates (skin swab, OL follow-up Week 15 to Week 32), “No rifampin resistant isolates”. The “isolates with MIC value of ≥4 μg/mL” value in the data set on Staphylococcus isolates (OL Last Assessment Visits between Week 7 and Week 32, […]) is on record as 16 isolates. The “resistance of S. aureus isolates” value in the data set on Staphylococcus isolates is listed as “no S. aureus isolates showed resistance”. Moreover, the MIC90 against Staphylococcus isolates (Staphylococcus, 24 h, […], DB placebo subjects, all Visits from Day 1 to DB Last Assessment) is ≤ 0.015 µg/mL; with Staphylococcus isolates (Staphylococcus, 24 h, […], OL phase, Treatment 2 visit (Day 1), prior to rifaximin) it was ≤ 0.015 µg/mL; against Staphylococcus isolates (Staphylococcus, 336 h, […], OL phase, EOT2 Visit (Week 2), after rifaximin 550 mg TID 2 weeks), 16 µg/mL (≈ 19.4 µM); against Staphylococcus isolates (Staphylococcus, […], OL Last Assessment Visits, Weeks 7 to 10), 0.5 µg/mL (≈ 0.608 µM); in the data set with Staphylococcus isolates (Staphylococcus, […], OL Last Assessment Visits, from Week 11 onward), ≤ 0.015 µg/mL. Besides, the MIC50 in the data set with Staphylococcus isolates (Staphylococcus, 24 h, […], OL phase, Treatment 2 visit (Day 1), prior to rifaximin, read-out: MIC50) is ≤ 0.015 µg/mL; with Staphylococcus isolates (Staphylococcus, 336 h, […], OL phase, EOT2 Visit (Week 2), after rifaximin 550 mg TID 2 weeks, read-out: MIC50), ≤ 0.015 µg/mL; in the data set on Staphylococcus isolates ([…], DB placebo subjects, all Visits from Day 1 to DB Last Assessment), ≤ 0.015 µg/mL. For the same compound, the MIC range in the data set with Staphylococcus isolates ([…], OL phase, Day 1 of Treatment 2) lay within 0.015 to 0.12 µg/mL. The “changes in MIC90 values” in the data set with Staphylococcus isolates ([…]) is given as “Transient changes”. Further, the “resistant isolates cultured from the left lower arm swabs” value in the data set on Staphylococcus isolates (skin swab, OL Week 2) came out at 3 isolates. Moreover, the “resistant isolates cultured from the palms of the hands” value with Staphylococcus isolates (skin swab, OL Week 2) is on record as 4 isolates. The “resistant isolates on the peri-rectum” value in the data set with Staphylococcus isolates (skin swab, OL Week 2) worked out at 32 isolates. In addition, the “isolates with a MIC value ≥4 μg/mL (resistant)” value with Staphylococcus isolates (setting [3]) is 39 isolates. Further, the “isolates with an MIC value of <4 μg/mL (susceptible)” value in the data set with Staphylococcus isolates (setting [3]) is on record as 297 isolates. For the same compound, the figures for the “resistant isolates (count)” value in the data set on Staphylococcus isolates (setting [4]) and in the data set on Staphylococcus isolates (setting [5]) were “Seven” and 7 isolates, respectively. For the same compound, the “resistant isolates, % of isolates” value in the data set on Staphylococcus isolates (setting [4]) was found to be 9.5%; with Staphylococcus isolates (setting [5]), 2.8%.
For `CO[C@H]1/C=C/O[C@@]2(C)Oc3c(C)c(O)c4c(O)c(c5c(nc6cc(C)ccn65)c4c3C2=O)NC(=O)/C(C)=C\C=C\[C@H](C)[C@H](O)[C@@H](C)[C@@H](O)[C@@H](C)[C@H](OC(C)=O)[C@@H]1C` [rifaximin], the “increases in the MIC50 or MIC90” value in the data set on Bacteroides was “within the range of MICs reported both at baseline”. Moreover, the “change in MIC values” in data set [1] is listed as “Transient increases”. The susceptibility entry in the data set on C. difficile (all C. difficile cultured from stool) was “highly susceptible”. Besides, the “resistance of C. difficile isolates” value with C. difficile (isolates identified in stool samples) is reported as “none of these isolates demonstrated rifaximin resistance”. The infection rates result in data set [2] was “no increased infection rates”. Besides, the “change in the number of S. aureus isolates” value in the data set on S. aureus is recorded as “no increase”. Moreover, in the data set on stool microbiota (DB phase), the “evenness in the microbiota” value is “unchanged”. Also, the “richness of the microbiota” value in the data set on stool microbiota (DB phase, rifaximin treated subjects, Week 2, reversed in follow-up) is “decreased”. In addition, the figures for the Shannon diversity in the data set on stool microbiota (after the 2 week treatment period) and with stool microbiota (baseline of DB phase) were 1.698 and 1.786, respectively. The “decrease in richness of the microbiota” value in the data set on stool microbiota (OL phase, baseline to Week 2) is given as 1.235 families. Also, in the data set with stool microbiota (OL phase, rifaximin 550 mg TID 2 weeks), the “change in Shannon diversity of the stool microbiota” value is “no substantial change”. Also, the “evenness of the microbiota” value in the data set on stool microbiota (OL phase, rifaximin treatment) is reported as “not affected”. In addition, in the data set on Staphylococcus isolates, the “resistance of S. aureus isolates” value is “no S. aureus isolates showed resistance”. Further, the MIC90 against Staphylococcus isolates (Staphylococcus, 24 h, skin swab isolates, DB phase Day 1 (Treatment 3), subjects randomized to placebo) turned out to be 0.03 µg/mL (≈ 0.0382 µM); with Staphylococcus isolates (Staphylococcus, 24 h, skin swab isolates, DB phase Day 1, subjects randomized to rifaximin) it was 0.03 µg/mL (≈ 0.0382 µM); in the data set on Staphylococcus isolates (Staphylococcus, 24 h, skin swab staphylococcal isolates, OL phase, Treatment 2 visit (Day 1), prior to rifaximin), 0.03 µg/mL (≈ 0.0382 µM); in the data set with Staphylococcus isolates (Staphylococcus, 336 h, skin swab isolates, OL phase, EOT2 Visit (Week 2), after rifaximin 550 mg TID 2 weeks), 32 µg/mL (≈ 40.7 µM); against Staphylococcus isolates (Staphylococcus, skin swab isolates, DB rifaximin subjects, EOT3 Visit (Week 2)), 32 µg/mL (≈ 40.7 µM); with Staphylococcus isolates (Staphylococcus, skin swab isolates, DB rifaximin subjects, Week 15 to Week 22), 0.5 µg/mL (≈ 0.636 µM). Also, the MIC90 in the data set with Staphylococcus isolates (Staphylococcus, skin swab isolates, DB rifaximin subjects, between Week 11 and Week 14) was 64 µg/mL (≈ 81.4 µM); with Staphylococcus isolates (Staphylococcus, skin swab isolates, DB rifaximin subjects, between Week 23 and Week 38), 0.06 µg/mL (≈ 0.0763 µM); in the data set with Staphylococcus isolates (Staphylococcus, skin swab isolates, OL Last Assessment Visits, Weeks 7 to 10) it was 2 µg/mL (≈ 2.54 µM); with Staphylococcus isolates (Staphylococcus, skin swab isolates, OL Last Assessment Visits, from Week 11 onward), 0.03 µg/mL (≈ 0.0382 µM). Further, the MIC50 with Staphylococcus isolates (Staphylococcus, 24 h, skin swab staphylococcal isolates, OL phase, Treatment 2 visit (Day 1), prior to rifaximin, read-out: MIC50) is 0.015 µg/mL (≈ 0.0191 µM); with Staphylococcus isolates (Staphylococcus, 336 h, skin swab isolates, OL phase, EOT2 Visit (Week 2), after rifaximin 550 mg TID 2 weeks, read-out: MIC50), 0.015 µg/mL (≈ 0.0191 µM); with Staphylococcus isolates (Staphylococcus, skin swab isolates, DB rifaximin subjects, DB Last Assessment Visits, read-out: MIC50) it was 0.015 to 0.06 µg/mL (≈ 0.0191 to 0.0763 µM); with Staphylococcus isolates (skin swab isolates, DB phase Day 1 (Treatment 3), subjects randomized to placebo), 0.015 µg/mL (≈ 0.0191 µM); in the data set with Staphylococcus isolates (skin swab isolates, DB phase Day 1, subjects randomized to rifaximin) it was 0.015 µg/mL (≈ 0.0191 µM). Besides, the MIC in the data set on Staphylococcus isolates (Staphylococcus, skin swab isolates, OL Last Assessment Visits, after decrease with time off rifaximin) worked out at 0.06 µg/mL (≈ 0.0763 µM); in the data set on Staphylococcus isolates (Staphylococcus, skin swab isolates, OL Last Assessment Visits, before decrease with time off rifaximin), 64 µg/mL (≈ 81.4 µM). Moreover, in the data set with Staphylococcus isolates (skin swab staphylococcal isolates, overall with rifaximin treatment), the “changes in MIC50 values” was “no changes”. The “changes in MIC90 values” in the data set on Staphylococcus isolates (skin swab staphylococcal isolates, overall) is “Transient changes”.
